# Calls of active or inactive are those of the source. No rule for the calls is given here.
# System: CCRIS mutagenicity, Ames/micronucleus/aberration tests
# Assay: CCRIS mutagenicity studies
# [1] = Test System: AMES SALMONELLA TYPHIMURIUM, Strain/Indicator: TA98, Metabolic Activation: RAT, LIVER, S-9, AROCLOR 1254, Method: STANDARD PLATE
# [2] = Test System: AMES SALMONELLA TYPHIMURIUM, Strain/Indicator: TA100, Metabolic Activation: NONE, Method: STANDARD PLATE
# [3] = Test System: AMES SALMONELLA TYPHIMURIUM, Strain/Indicator: TA100, Metabolic Activation: RAT, LIVER, S-9, AROCLOR 1254, Method: STANDARD PLATE
smiles,measurement,setting,value
CCS(=O)(=O)CCn1c([N+](=O)[O-])cnc1C,mutagenic call,[1],inactive; negative
same,mutagenic call,"Test System: AMES SALMONELLA TYPHIMURIUM, Strain/Indicator: TA100(1,8-DNP6), Metabolic Activation: NONE, Method: PREINCUBATION (AEROBIC)",active; positive
same,mutagenic call,"Test System: AMES SALMONELLA TYPHIMURIUM, Strain/Indicator: TA100(NR), Metabolic Activation: NONE, Method: PREINCUBATION (AEROBIC)",active; positive
same,mutagenic call,"Test System: AMES SALMONELLA TYPHIMURIUM, Strain/Indicator: TA100(NR), Metabolic Activation: NONE, Method: PREINCUBATION (ANAEROBIC)",active; positive
same,mutagenic call,"Test System: AMES SALMONELLA TYPHIMURIUM, Strain/Indicator: TA100(NR), Metabolic Activation: RAT, LIVER, S-9, AROCLOR 1254, Method: PREINCUBATION (AEROBIC)",active; positive
same,mutagenic call,"Test System: AMES SALMONELLA TYPHIMURIUM, Strain/Indicator: TA100(NR), Metabolic Activation: RAT, LIVER, S-9, AROCLOR 1254, Method: PREINCUBATION (ANAEROBIC)",active; positive
same,mutagenic call,"Test System: AMES SALMONELLA TYPHIMURIUM, Strain/Indicator: TA100(NR), Metabolic Activation: RAT, LIVER, S-9, AROCLOR 1254, Method: STANDARD PLATE",active; positive
same,mutagenic call,"Test System: AMES SALMONELLA TYPHIMURIUM, Strain/Indicator: TA100, Metabolic Activation: NONE, Method: PREINCUBATION (AEROBIC)",active; positive
same,mutagenic call,"Test System: AMES SALMONELLA TYPHIMURIUM, Strain/Indicator: TA100, Metabolic Activation: NONE, Method: PREINCUBATION (ANAEROBIC)",active; positive
same,mutagenic call,[2],active; positive
same,mutagenic call,"Test System: AMES SALMONELLA TYPHIMURIUM, Strain/Indicator: TA100, Metabolic Activation: RAT, LIVER, S-9, AROCLOR 1254, Method: PREINCUBATION (AEROBIC)",active; positive
same,mutagenic call,"Test System: AMES SALMONELLA TYPHIMURIUM, Strain/Indicator: TA100, Metabolic Activation: RAT, LIVER, S-9, AROCLOR 1254, Method: PREINCUBATION (ANAEROBIC)",active; positive
same,mutagenic call,[3],active; positive
same,mutagenic call,"Test System: AMES SALMONELLA TYPHIMURIUM, Strain/Indicator: UTH8414, Metabolic Activation: NONE, Method: STANDARD PLATE",active; positive
same,mutagenic call,"Test System: AMES SALMONELLA TYPHIMURIUM, Strain/Indicator: YG1029, Metabolic Activation: NONE, Method: PREINCUBATION (AEROBIC)",active; positive
CCC(CC)[N+](=O)[O-],mutagenic call,"Test System: AMES SALMONELLA TYPHIMURIUM, Strain/Indicator: TA100, Metabolic Activation: NONE, Method: PREINCUBATION",inactive; negative
same,mutagenic call,"Test System: AMES SALMONELLA TYPHIMURIUM, Strain/Indicator: TA100, Metabolic Activation: RAT, LIVER, S-9, AROCLOR, Method: PREINCUBATION",inactive; negative
same,mutagenic call,"Test System: AMES SALMONELLA TYPHIMURIUM, Strain/Indicator: TA102, Metabolic Activation: NONE, Method: PREINCUBATION",inactive; negative
same,mutagenic call,"Test System: AMES SALMONELLA TYPHIMURIUM, Strain/Indicator: TA102, Metabolic Activation: RAT, LIVER, S-9, AROCLOR, Method: PREINCUBATION",inactive; negative
same,mutagenic call,"Test System: UDS RAT HEPATOCYTES, Strain/Indicator: THY INCORP, Metabolic Activation: NONE",active; positive
CC1=CCC(=O)O1,mutagenic call,"Test System: AMES SALMONELLA TYPHIMURIUM, Strain/Indicator: TA98, Metabolic Activation: NONE, Method: STANDARD PLATE",inactive; negative
same,mutagenic call,[1],inactive; negative
same,mutagenic call,[2],inactive; negative
same,mutagenic call,[3],inactive; negative
C(COCC1CO1)OCC1CO1 (stereo unspecified),mutagenic call,[2],active; positive
same,mutagenic call,"Test System: AMES SALMONELLA TYPHIMURIUM, Strain/Indicator: TA1535, Metabolic Activation: NONE, Method: STANDARD PLATE",active; positive
